Experiments:
Rattus norvegicus [1] = organism: Rattus norvegicus; test: Renoprotective activity in 1% ethylene glycol-treated Rattus norvegicus Sprague-Dawley (rat) kidney assessed as decrease in oxalate excretion in urine at 0.4 mg/day after 14 days (reference value: 4.07 +/- 0.05 uM); assay type: functional
Rattus norvegicus [2] = organism: Rattus norvegicus; test: Renoprotective activity in 1% ethylene glycol-treated Rattus norvegicus Sprague-Dawley (rat) kidney assessed as decrease in oxalate excretion in urine at 2 mg/day after 14 days (reference value: 4.07 +/- 0.05 uM); assay type: functional
Rattus norvegicus [3] = test: Downregulation of OPN expression in Rattus norvegicus Sprague-Dawley (rat) kidney at 0.4 mg/day, po after 14 days by ELISA in presence of water (reference value: 10 +/- 3 %); assay type: functional
Rattus norvegicus [4] = test: Downregulation of OPN expression in 1% ethylene glycol-treated po dosed Rattus norvegicus Sprague-Dawley (rat) kidney at 0.4 mg/day, po after 14 days by ELISA; assay type: functional, organism-based
Rattus norvegicus [5] = test: Downregulation of OPN expression in 1% ethylene glycol-treated Rattus norvegicus Sprague-Dawley (rat) kidney at 0.8 mg/day, po after 14 days by ELISA (reference value: 75 +/- 13.5 %); assay type: functional
Rattus norvegicus [6] = test: Downregulation of OPN expression in 1% ethylene glycol-treated Rattus norvegicus Sprague-Dawley (rat) kidney at 0.4 mg/day, po after 14 days by ELISA (reference value: 75 +/- 13.5 %); assay type: functional
Rattus norvegicus [7] = test: Downregulation of OPN expression in 1% ethylene glycol-treated Rattus norvegicus Sprague-Dawley (rat) kidney at 3 mg/day, po after 14 days by ELISA (reference value: 75 +/- 13.5 %); assay type: functional
Rattus norvegicus [8] = test: Downregulation of OPN expression in 1% ethylene glycol-treated Rattus norvegicus Sprague-Dawley (rat) kidney at 2 mg/day, po after 14 days by ELISA (reference value: 75 +/- 13.5 %); assay type: functional
Rattus norvegicus [9] = test: Downregulation of OPN expression in 1% ethylene glycol-treated Rattus norvegicus Sprague-Dawley (rat) kidney at 4 mg/day, po after 14 days by ELISA (reference value: 75 +/- 13.5 %); assay type: functional
Rattus norvegicus [10] = organism: Rattus norvegicus; test: Renoprotective activity in 1% ethylene glycol-treated Rattus norvegicus Sprague-Dawley (rat) kidney assessed as decrease in oxalate excretion in urine at 3 mg/day after 14 days (reference value: 4.07 +/- 0.05 uM); assay type: functional
Rattus norvegicus [11] = organism: Rattus norvegicus; test: Renoprotective activity in Rattus norvegicus Sprague-Dawley (rat) kidney assessed as decrease in oxalate excretion in urine at 4 mg/day after 14 days in presence of water (reference value: 1.11 +/- 0.06 uM); assay type: functional
Rattus norvegicus [12] = organism: Rattus norvegicus; test: Renoprotective activity in 1% ethylene glycol-treated Rattus norvegicus Sprague-Dawley (rat) kidney assessed as decrease in oxalate excretion in urine at 4 mg/day after 14 days (reference value: 4.07 +/- 0.05 uM); assay type: functional
Rattus norvegicus [13] = organism: Rattus norvegicus; test: Renoprotective activity in 1% ethylene glycol-treated Rattus norvegicus Sprague-Dawley (rat) kidney assessed as decrease in oxalate excretion in urine at 0.8 mg/day after 14 days (reference value: 4.07 +/- 0.05 uM); assay type: functional

With CC1=CC(=O)c2ccccc2C1=O [MENADIONE] the Activity (Rattus norvegicus [1]) was 3.44 µM, the Activity (Rattus norvegicus [2]) was 2.55 µM and the Activity (Rattus norvegicus [3]) was 11%. For the same molecule, the Activity (Rattus norvegicus [4]) was “Dose-dependent effect”, the Activity (Rattus norvegicus [5]) was 55% and the Activity (Rattus norvegicus [6]) was 70%. The Activity (Rattus norvegicus [7]) was 30%, the Activity (Rattus norvegicus [8]) was 35% and the Activity (Rattus norvegicus [9]) was 20%. It also gave an Activity (Rattus norvegicus [10]) of 2.01 µM, an Activity (Rattus norvegicus [11]) of 1.02 µM and an Activity (Rattus norvegicus [12]) of 1.49 µM. For the same molecule, the Activity (Rattus norvegicus [13]) was 3.04 µM.

— ChEMBL document CHEMBL3046064, “Expression of OPN in rat kidney with different doses of vitamin K3 injection” (2007)
